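96-well plates; 48 h exposure; 5 concentrations. Endpoints by linear interpolation between flanking doses. Not reached: highest tested concentration assigned. TGI marks complete inhibition of growth.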
Columns and labels:
Assay in all cases: inhibition of tumour cell growth, NCI panel, 48 h
HT29 colon = tested on: HT29 colon
OVCAR-8 ovarian = tested on: OVCAR-8 ovarian
U251 CNS = tested on: U251 CNS
MDA-MB-435 = tested on: MDA-MB-435
SK-MEL-28 melanoma = tested on: SK-MEL-28 melanoma
IGROV1 ovarian = tested on: IGROV1 ovarian
SF-268 CNS = tested on: SF-268 CNS
SK-MEL-5 melanoma = tested on: SK-MEL-5 melanoma
COLO 205 colon = tested on: COLO 205 colon
786-0 renal = tested on: 786-0 renal
MALME-3M melanoma = tested on: MALME-3M melanoma
SW-620 colon = tested on: SW-620 colon
HS 578T breast = tested on: HS 578T breast
K-562 leukemia = tested on: K-562 leukemia
HL-60(TB) leukemia = tested on: HL-60(TB) leukemia
CAKI-1 renal = tested on: CAKI-1 renal
NCI-H226 lung = tested on: NCI-H226 lung
MOLT-4 leukemia = tested on: MOLT-4 leukemia
OVCAR-5 ovarian = tested on: OVCAR-5 ovarian
M14 melanoma = tested on: M14 melanoma
NCI-H460 lung = tested on: NCI-H460 lung
SK-MEL-2 melanoma = tested on: SK-MEL-2 melanoma
MDA-MB-231 breast = tested on: MDA-MB-231 breast
HCT-116 colon = tested on: HCT-116 colon
OVCAR-4 ovarian = tested on: OVCAR-4 ovarian
DU-145 prostate = tested on: DU-145 prostate
HOP-92 NSCLC = tested on: HOP-92 NSCLC
TK-10 renal = tested on: TK-10 renal
HOP-62 NSCLC = tested on: HOP-62 NSCLC
ACHN renal = tested on: ACHN renal
MCF7 breast = tested on: MCF7 breast
SN12C renal = tested on: SN12C renal
CCRF-CEM leukemia = tested on: CCRF-CEM leukemia
RXF 393 renal = tested on: RXF 393 renal
KM12 colon = tested on: KM12 colon
UO-31 renal = tested on: UO-31 renal
SR leukemia = tested on: SR leukemia
SNB-19 CNS = tested on: SNB-19 CNS
UACC-62 melanoma = tested on: UACC-62 melanoma
A549 NSCLC = tested on: A549 NSCLC
OVCAR-3 ovarian = tested on: OVCAR-3 ovarian
UACC-257 melanoma = tested on: UACC-257 melanoma
NCI-H23 lung = tested on: NCI-H23 lung
EKVX NSCLC = tested on: EKVX NSCLC
SF-295 CNS = tested on: SF-295 CNS
SF-539 CNS = tested on: SF-539 CNS
T-47D breast = tested on: T-47D breast
SNB-75 CNS = tested on: SNB-75 CNS
MDA-N = tested on: MDA-N
HCT-15 colon = tested on: HCT-15 colon
RPMI-8226 leukemia = tested on: RPMI-8226 leukemia
NCI-H522 lung = tested on: NCI-H522 lung
NCI/ADR-RES ovarian = tested on: NCI/ADR-RES ovarian
LOX IMVI melanoma = tested on: LOX IMVI melanoma
PC-3 prostate = tested on: PC-3 prostate
A498 renal = tested on: A498 renal
BT-549 breast = tested on: BT-549 breast

Compound: COc1cccc(C(=O)Oc2ccc(OS(=O)(=O)c3ccc(C)cc3)cc2)c1C#N
- TGI (HT29 colon): > 100 µM
- TGI (OVCAR-8 ovarian): > 100 µM
- TGI (U251 CNS): > 100 µM
- TGI (MDA-MB-435): > 100 µM
- TGI (SK-MEL-28 melanoma): > 100 µM
- TGI (IGROV1 ovarian): > 100 µM
- TGI (SF-268 CNS): > 100 µM
- TGI (SK-MEL-5 melanoma): 31.2 µM
- TGI (COLO 205 colon): > 100 µM
- TGI (786-0 renal): > 100 µM
- TGI (MALME-3M melanoma): > 100 µM
- TGI (SW-620 colon): > 100 µM
- TGI (HS 578T breast): > 100 µM
- TGI (K-562 leukemia): > 100 µM
- TGI (HL-60(TB) leukemia): > 100 µM
- TGI (CAKI-1 renal): > 100 µM
- TGI (NCI-H226 lung): > 100 µM
- TGI (MOLT-4 leukemia): > 100 µM
- TGI (OVCAR-5 ovarian): > 100 µM
- TGI (M14 melanoma): > 100 µM
- TGI (NCI-H460 lung): > 100 µM
- TGI (SK-MEL-2 melanoma): > 100 µM
- TGI (MDA-MB-231 breast): > 100 µM
- TGI (HCT-116 colon): > 100 µM
- TGI (OVCAR-4 ovarian): > 100 µM
- TGI (DU-145 prostate): > 100 µM
- TGI (HOP-92 NSCLC): > 100 µM
- TGI (TK-10 renal): > 100 µM
- TGI (HOP-62 NSCLC): > 100 µM
- TGI (ACHN renal): > 100 µM
- TGI (MCF7 breast): > 100 µM
- TGI (SN12C renal): > 100 µM
- TGI (CCRF-CEM leukemia): > 100 µM
- TGI (RXF 393 renal): > 100 µM
- TGI (KM12 colon): > 100 µM
- TGI (UO-31 renal): > 100 µM
- TGI (SR leukemia): > 100 µM
- TGI (SNB-19 CNS): > 100 µM
- TGI (UACC-62 melanoma): > 100 µM
- TGI (A549 NSCLC): > 100 µM
- TGI (OVCAR-3 ovarian): > 100 µM
- TGI (UACC-257 melanoma): 96.6 µM
- TGI (NCI-H23 lung): > 100 µM
- TGI (EKVX NSCLC): > 100 µM
- TGI (SF-295 CNS): > 100 µM
- TGI (SF-539 CNS): > 100 µM
- TGI (T-47D breast): 71.7 µM
- TGI (SNB-75 CNS): > 100 µM
- TGI (MDA-N): > 100 µM
- TGI (HCT-15 colon): > 100 µM
- TGI (RPMI-8226 leukemia): > 100 µM
- TGI (NCI-H522 lung): > 100 µM
- TGI (NCI/ADR-RES ovarian): > 100 µM
- TGI (LOX IMVI melanoma): > 100 µM
- TGI (PC-3 prostate): > 100 µM

Compound: CCCNC(=O)NNC(=O)c1c[nH]c2nc(C)ccc2c1=O
- TGI (HT29 colon): > 100 µM
- TGI (OVCAR-8 ovarian): > 100 µM
- TGI (U251 CNS): > 100 µM
- TGI (A498 renal): > 100 µM
- TGI (MDA-MB-435): > 100 µM
- TGI (SK-MEL-28 melanoma): > 100 µM
- TGI (IGROV1 ovarian): > 100 µM
- TGI (SF-268 CNS): > 100 µM
- TGI (SK-MEL-5 melanoma): > 100 µM
- TGI (COLO 205 colon): > 100 µM
- TGI (786-0 renal): > 100 µM
- TGI (MALME-3M melanoma): > 100 µM
- TGI (SW-620 colon): > 100 µM
- TGI (HS 578T breast): > 100 µM
- TGI (K-562 leukemia): > 100 µM
- TGI (HL-60(TB) leukemia): > 100 µM
- TGI (CAKI-1 renal): > 100 µM
- TGI (NCI-H226 lung): > 100 µM
- TGI (MOLT-4 leukemia): > 100 µM
- TGI (OVCAR-5 ovarian): > 100 µM
- TGI (M14 melanoma): > 100 µM
- TGI (NCI-H460 lung): > 100 µM
- TGI (SK-MEL-2 melanoma): > 100 µM
- TGI (MDA-MB-231 breast): > 100 µM
- TGI (HCT-116 colon): > 100 µM
- TGI (OVCAR-4 ovarian): > 100 µM
- TGI (DU-145 prostate): > 100 µM
- TGI (TK-10 renal): > 100 µM
- TGI (HOP-62 NSCLC): > 100 µM
- TGI (ACHN renal): > 100 µM
- TGI (MCF7 breast): > 100 µM
- TGI (SN12C renal): > 100 µM
- TGI (CCRF-CEM leukemia): > 100 µM
- TGI (RXF 393 renal): > 100 µM
- TGI (KM12 colon): > 100 µM
- TGI (UO-31 renal): > 100 µM
- TGI (SNB-19 CNS): > 100 µM
- TGI (UACC-62 melanoma): > 100 µM
- TGI (A549 NSCLC): > 100 µM
- TGI (OVCAR-3 ovarian): > 100 µM
- TGI (UACC-257 melanoma): > 100 µM
- TGI (NCI-H23 lung): > 100 µM
- TGI (EKVX NSCLC): > 100 µM
- TGI (SF-295 CNS): > 100 µM
- TGI (T-47D breast): > 100 µM
- TGI (BT-549 breast): > 100 µM
- TGI (MDA-N): > 100 µM
- TGI (HCT-15 colon): > 100 µM
- TGI (RPMI-8226 leukemia): > 100 µM
- TGI (NCI-H522 lung): > 100 µM
- TGI (NCI/ADR-RES ovarian): > 100 µM
- TGI (LOX IMVI melanoma): > 100 µM
- TGI (PC-3 prostate): > 100 µM
